The subject of test [1] is JeKo-1.Luc cells. The experiment in a line: Anti-tumor efficacy model, JeKo-1.Luc. The class given is in vivo, NSG mice. The note with it: RPM 1 mg kg^−1 daily for 2 weeks. How it is done: Immunocompromised NOD scid gamma (NSG) mice were implanted with 5E5 Jeko-1 tumor cells and the tumor cells were allowed to engraft for 6 days. After the six days of engraftment, 1E6 unedited or edited 19CAR-T cells were infused into tumor bearing mice (N=8 mice evaluated for each experimental condition) and administered daily for 2 weeks (dotted vertical lines) either a vehicle (5% PEG400+5% Tween80) or tacrolimus (10 mg/kg in 5% PEG400+5% Tween80). Tumor burden was assessed twice per week by measuring bioluminescence using an IVIS® spectral imaging instrument. In FIGS. 13A and 13B, each data point represents a measurement taken for an individual mouse.
For the study described in FIGS. 18A to 18G, NSG mice were intravenously injected with 5×10^5 JeKo-1.Luc cells at day 0. On day 7, mice initiated daily intraperitoneal injections of VEH, RPM (1 mg kg^−1), or TAC (10 mg kg^−1) for 2 weeks. […] For all studies, tumor burden was measured every 3-4 days post-implant by bioluminescence imaging (IVIS Spectrum, Spectral Instruments Imaging) 30 minutes after intraperitoneally injecting mice with 150 mg kg^−1 XenoLight D-Luciferin (PerkinElmer). The acquisition time was automatically determined by the instrument for each exposure, and quantification of flux from imaging datasets was performed with the Living Image Studio software (Perkin Elmer). […]

In test [2] the test system is mTOR and downstream substrates S6Rp and 4E-BP1. The experiment in a line: Phosphorylation of mTOR, S6 and 4EBP1 in malignant B cell lines. The class given is cell-based, human. The following applies: JeKo-1, Raji and Nalm6 cells treated with DMSO or RPM. The procedure:
FIGS. 26A to 26E provide histograms and plots showing malignant B cell lines were sensitive to Rapamycin treatment in vitro. FIG. 26A provides histograms showing geometric median fluorescent intensity (MFI) of phosphorylated mTOR (pS2448), S6 (pS235/[…]) and 4EBP1 (pT36/T45) in JeKo-1, Raji and Nalm6 cell lines, as well as primary human monocytes and bulk lymphocytes. FIGS. 26B to 26D relate to an experiment where JeKo-1, Raji and Nalm6 cells were treated with DMSO or Rapamycin (RPM) and then analyzed for phosphorylation level of mTOR (FIG. 26B), S6 (FIG. 26C) and 4EBP1 (FIG. 26D). FIG. 26E provides plots showing JeKo-1, Raji and Nalm6 cell growth kinetics after treatment with DMSO or RPM at different concentrations. Symbols indicate mean and error bars show ±s.e.m.
Live cells were discriminated by staining negative for Fixable Viability Dye eFluor780 (eBioscience). CountBright Counting Beads were used according to the manufacturer's instructions to determine concentration of immune cells from whole blood. Intracellular cytokines were detected using Cell Fixation & Cell Permeability Kit (Invitrogen) following manufacturer's protocol with anti-human antibodies from Biolegend: TNF-a (MAb11), IFN-g (4S.B3), IL-2 (MQH-17H12) and GM-CSF (BVD2-21C11). […] Data was analyzed using FlowJo software v.10 (Tree Star).

Test [3] has as its system CD19^+ B cells. Briefly: B cell aplasia and 19CAR-T cell persistence in HIS mice. The format is in vivo, huCD34-NCG mice. The following applies: TAC 10 mg kg^−1 daily; 10 days post-T cell infusion. An excerpt:
FIGS. 19B and 19C provide a bar graph of cell concentration (FIG. 19B) and flow cytometry contour plots (FIG. 19C) for peripheral CD19^+ B cells 6 days post-T cell infusion from mice in Groups 1-4. FIGS. 19D and 19E provide bar graphs showing total CD19^+ B cells from individual mouse splenic (FIG. 19D) and bone marrow (FIG. 19E) tissue 10 days post-T cell infusion in Groups 1-4. FIG. 19F provides a bar graph showing geometric median fluorescent intensity (MFI) of CD19 expression on residual peripheral CD22^+ B cells 6 days post-T cell infusion from mice in Groups 1-4. FIG. 19G provides a bar graph showing concentration of peripheral CD22^+CD19^dim B cells 6 days post-T cell infusion from mice in Groups 1-4. […] Statistical significance was calculated by Wilcoxon rank sum test (FIGS. 19B, 19D, and 19E) and Kruskall-Wallace test with Dunn's test for multiple comparisons (FIGS. 19F, 19G, 19I, and 19J).
For the studies described in FIGS. 19A to 19J, huCD34-NCG mice were used in Cohort #6 (n=16), Cohort #7 (n=12), Cohort #8 (n=24), and Cohort #9 (n=12) and were evenly distributed into 4 groups via matched distribution based on degree of human T cell engraftment using StudyLog. […] Endogenous B cell aplasia and persistence of 19CAR-T cells was monitored at 7- and 11-days post-drug treatment via blood draw from the submandibular vein and tissue collection at necropsy.

For the compound `CO[C@H]1C[C@@H]2CC[C@@H](C)[C@@](O)(O2)C(=O)C(=O)N2CCCC[C@H]2C(=O)O[C@H]([C@H](C)C[C@@H]2CC[C@@H](O)[C@H](OC)C2)CC(=O)[C@H](C)/C=C(\C)[C@@H](O)[C@@H](OC)C(=O)[C@H](C)C[C@H](C)/C=C/C=C/C=C/1C` [rapamycin, Rapamycin], the “JeKo-1 growth in control mice” value in test [1] is on record as “mitigated JeKo-1 growth in control mice”. Besides, in test [2], the “protein phosphorylation of mTOR and downstream substrates S6Rp and 4E-BP1” value is “attenuated protein phosphorylation”.
For `C=CC[C@@H]1/C=C(\C)C[C@H](C)C[C@H](OC)[C@H]2O[C@@](O)(C(=O)C(=O)N3CCCC[C@H]3C(=O)O[C@H](/C(C)=C/[C@@H]3CC[C@@H](O)[C@H](OC)C3)[C@H](C)[C@@H](O)CC1=O)[C@H](C)C[C@@H]2OC` [tacrolimus, Tacrolimus], in test [3], the “allorejection of HLA-I^+ 19CAR-T cells in peripheral blood and spleen” value is “protected HLA-I^+ 19CAR-T cells”.

The record behind these values is patent US20260183393A1, “IMMUNOSUPPRESSANT-RESISTANT MODIFIED ALLOGENEIC MODIFIED IMMUNE CELLS AND METHODS FOR USE THEREOF” (Beam Therapeutics Inc., priority 2023, published 2026).
